Laboratory results: patent US11440923B2, “Substituted macrocyclic indole derivatives” (Bayer Aktiengesellschaft, priority 2017, dated 2022)
Structures can show the parent of a compound that is named as a salt. Where two headings read alike, the source gives them in different places.

Tests used:
SUDHL10 cells = test: Induction of cytotoxicity in SUDHL10 cells (Assay 6); assay type: cell-based; conditions: 5 h, CellTiter-Glo, read-out: Cytotox SUDHL10 IC50 (median)
Outline: (§1)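 Run alongside apoptosis measurements, this cytotoxicity readout used cells treated with compound for 5 h at 37 °C and quantified ATP-based luminescence with CellTiter-Glo.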

SUDHL5 cells = test: Induction of cytotoxicity in SUDHL5 cells (Assay 6); assay type: cell-based; conditions: 5 h, CellTiter-Glo, read-out: Cytotox SUDHL5 IC50 (median)
Outline: as §1

BCL-2 = BCL-2 (Homo sapiens (Human), UniProt P10415); test: Protein-protein interaction assay BCL-2/Bad BH3 peptide (BCL-2 assay, TR-FRET); assay type: binding; conditions: read-out: BCL-2 Assay IC50 (median)
Sequence of BCL-2 (P10415 1-211): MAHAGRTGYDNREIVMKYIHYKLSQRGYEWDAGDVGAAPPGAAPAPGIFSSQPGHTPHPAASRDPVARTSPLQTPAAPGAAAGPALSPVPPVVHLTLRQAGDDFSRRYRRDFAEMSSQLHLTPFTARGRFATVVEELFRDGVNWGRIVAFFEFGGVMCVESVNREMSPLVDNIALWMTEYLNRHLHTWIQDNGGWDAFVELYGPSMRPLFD
Method: Assay 3 Protein-Protein Interaction Assay: BCL-2/Bad BH3 Peptide (BCL-2 Assay)
The dose-dependent inhibition by the compounds described in this invention of the interaction between BCL-2 and the BH3 domain of Bad (both human) was determined using a steady state binding competition assay with time-resolved fluorescence energy transfer (TR-FRET) readout. For that purpose BCL-2 (amino acids 1-211, C-terminal fused to a hexahistidine (6×His) tag (SEQ ID 5) and a synthetic Bad BH3-derived peptide of sequence Biotin-PEG2-PEG2-[…]-Nle-[…]-amide (SEQ ID 4) served as protein receptor and tracer ligand respectively. The recombinant BCL-2 protein (expressed in E. coli) was purchased from BPS Bioscience (San Diego, Calif., USA). The Bad BH3-derived peptide can be obtained from e.g. Biosyntan (Berlin, Germany).
In the assay 11 different concentrations of each compound (0.1 nM, 0.33 nM, 1.1 nM, 3.8 nM, 13 nM, 44 nM, 0.15 μM, 0.51 μM, 1.7 μM, 5.9 μM and 20 μM) were typically measured as duplicates in the same microtiter plate. For that, 100-fold concentrated DMSO solutions were prepared by serial dilutions (1:3.4) of a 2 mM stock solution in a clear, 384-well microtiter plate (Greiner Bio-One, Frickenhausen, Germany). From there, 50 nl were transferred in a dark test plate (Greiner Bio-One, Frickenhausen, Germany). The assay was initiated by addition of 2 μL of a 2,5-fold concentrated His-BCL-2 solution (usually for a 1 nM end concentration in 5 μL reaction volume) in aqueous assay buffer [50 mM Tris/HCl pH 7, 100 mM sodium chloride (NaCl), 50 mM potassium fluoride (KF), 0.005% Tween-20, 2 mM DTT, 0.1% bovine gamma globulin (BGG)] to the compounds in the assay plate. This was followed by a 10-minute incubation step at 22° C. for pre-equilibration of the putative complex between His-BCL-2 and the compounds. After that, 3 μL of a 1.67-fold concentrated solution (in assay buffer) consisting of Bad BH3-derived peptide (1 nM end concentration) and TR-FRET detection reagents [1.67 nM anti-His-Eu cryptate and 1.67 nM streptavidin-XL665 (both from Cisbio Bioassays, Codolet, France)], were added.
The mixture was incubated in the dark for one hour at 22° C. and then overnight at 4° C. The formation of BCL-2/Bad complexes was determined by measuring the resonance energy transfer of the anti-His-Eu-cryptate antibody to the streptavidin-XL665 present in the reaction. For that purpose, the fluorescence emission at 620 nm and 665 nm after excitation at 330-350 nm was measured in a TR-FRET measuring instrument, for instance a Rubystar or a Pherastar (both from BMG Lab Technologies, Offenburg, Germany) or a Viewlux (Perkin-Elmer). The ratio of the emission at 665 nm and at 622 nm was used as indicator of the amount of BCL-2/Bad complexes present.
The resulting data (ratio) were normalized, taking 0% inhibition as the mean value of control measurements (usually 32 data points) where all reagents were included. In this case 50 nl DMSO were used instead of compounds. […] IC50 values were determined by regression analysis based on a 4 parameter equation (minimum, maximum, IC50, Hill; Y=Max+(Min−Max)/(1+(X/IC50)^Hill) using the Screener Software (Genedata).

| Structure (SMILES) | IC50 (SUDHL10 cells) | IC50 (SUDHL5 cells) | IC50 (BCL-2) | IC50 (SUDHL10 cells; Homo sapiens, SU-DHL10, 5 h) | IC50 (SUDHL5 cells; Homo sapiens, SU-DHL-5, 5 h) |
| --- | --- | --- | --- | --- | --- |
| CCc1c2c(nn1C)C(CCN1CCOCC1)OCCCCn1c(C(=O)O)c(CCCOc3cccc4ccccc34)c3ccc(F)c-2c31 (single isomer, unassigned; enantiomer 1) [Example 11, 3-ethyl-4-fluoro-2-methyl-15-[2-(morpholin-4-yl)ethyl]-7-{3-[(naphthalen-1-yl)oxy]propyl}-2,10,11,12,13,15-hexahydropyrazolo[4′,3′:9,10][1,6]oxazacycloundecino[8,7,6-hi]indole-8-carboxylic Acid—N-ethylethanamine Salt (Enantiomer 1)] | 250 nM | 95 nM |  |  |  |
| CCc1c2c(nn1C)C(CCN1CCN(C)CC1)OCCCCn1c(C(=O)O)c(CCCOc3cccc4cc(F)ccc34)c3ccc(Cl)c-2c31 (racemic) [Example 68, 4-chloro-3-ethyl-7-{3-[(6-fluoronaphthalen-1-yl)oxy]propyl}-2-methyl-(15-rac)-[2-(4-methylpiperazin-1-yl)ethyl]-2,10,11,12,13,15-hexahydropyrazolo[4′,3′:9,10][1,6]oxazacycloundecino[8,7,6-hi]indole-8-carboxylic Acid—N-ethylethanamine Salt (Mixture 1 of Stereoisomers)] | 150 nM |  | > 20000 nM |  |  |
| CCc1c2c(nn1C)C(C1CC1)OCCCCn1c(C(=O)O)c(CCCOc3cccc4cc(F)ccc34)c3ccc(Cl)c-2c31 (racemic) [Example 38, (rac)-4-chloro-(15-rac)-cyclopropyl-3-ethyl-7-{3-[(6-fluoronaphthalen-1-yl)oxy]propyl}-2-methyl-2,10,11,12,13,15-hexahydropyrazolo[4′,3′:9,10][1,6]oxazacycloundecino[8,7,6-hi]indole-8-carboxylic Acid] |  |  |  | 6300 nM | 1500 nM |
| CCc1c2c(nn1C)C(CCC1CCOCC1)OCCCCn1c(C(=O)O)c(CCCOc3cccc4cc(F)ccc34)c3ccc(Cl)c-2c31 (single isomer, unassigned; enantiomer 1) [Example 63, (+)-4-chloro-3-ethyl-7-{3-[(6-fluoronaphthalen-1-yl)oxy]propyl}-2-methyl-15-[2-(oxan-4-yl)ethyl]-2,10,11,12,13,15-hexahydropyrazolo[4′,3′:9,10][1,6]oxazacycloundecino[8,7,6-hi]indole-8-carboxylic Acid—N-ethylethanamine Salt (Enantiomer 1)] | 67 nM | 49 nM |  |  |  |
| CCc1c2c(nn1C)C1CCCN1CCCCn1c(C(=O)O)c(CCCOc3cccc4cc(F)ccc34)c3ccc(Cl)c-2c31 (single isomer, unassigned; (+)) [Example 105, (+)-17-chloro-1-ethyl-14-{3-[(6-fluoronaphthalen-1-yl)oxy]propyl}-2-methyl-3b,4,5,6,8,9,10,11-octahydro-2H-pyrazolo[3′,4′:8,9]pyrrolo[1′,2′:6,7][1,6]diazacycloundecino[10,11,1-hi]indole-13-carboxylic Acid] | 290 nM | 370 nM |  |  |  |
| CCc1c2c(nn1C)C(CCN1CC(F)(F)C1)OCCCCn1c(C(=O)O)c(CCCOc3cccc4cc(F)ccc34)c3ccc(Cl)c-2c31 (single isomer, unassigned; (+)) [Example 78, (+)-4-chloro-15-[2-(3,3-difluoroazetidin-1-yl)ethyl]-3-ethyl-7-{3-[(6-fluoronaphthalen-1-yl)oxy]propyl}-2-methyl-2,10,11,12,13,15-hexahydropyrazolo[4′,3′:9,10][1,6]oxazacycloundecino[8,7,6-hi]indole-8-carboxylic Acid—N-ethylethanamine Salt] | 12 nM | 14 nM |  |  |  |
| CCc1c2c(nn1C)C(C1CC1)OCCCCn1c(C(=O)O)c(CCCOc3cccc4cc(F)ccc34)c3ccc(Cl)c-2c31 (single isomer, unassigned; enantiomer 1) [Example 39, (+)-4-chloro-15-cyclopropyl-3-ethyl-7-{3-[(6-fluoronaphthalen-1-yl)oxy]propyl}-2-methyl-2,10,11,12,13,15-hexahydropyrazolo[4′,3′:9,10][1,6]oxazacycloundecino[8,7,6-hi]indole-8-carboxylic Acid—N-ethylethanamine Salt (Enantiomer 1)] | 1400 nM | 1000 nM |  |  |  |
| CCc1c2c(nn1C)C(CCC1CCOCC1)OCCCCn1c(C(=O)O)c(CCCOc3cccc4cc(F)ccc34)c3ccc(Cl)c-2c31 (single isomer, unassigned; enantiomer 1) [Example 61, 4-chloro-3-ethyl-7-{3-[(6-fluoronaphthalen-1-yl)oxy]propyl}-2-methyl-15-[2-(oxan-4-yl)ethyl]-2,10,11,12,13,15-hexahydropyrazolo[4′,3′:9,10][1,6]oxazacycloundecino[8,7,6-hi]indole-8-carboxylic Acid (Enantiomer 1)] | 29 nM | 38 nM |  |  |  |
| CCc1c2c(nn1C)C(C(F)(F)F)OCCCCn1c(C(=O)O)c(CCCOc3cccc4ccccc34)c3ccc(Cl)c-2c31 (racemic) [Example 27, (rac)-4-Chloro-3-ethyl-2-methyl-7-{3-[(naphthalen-1-yl)oxy]propyl}-15-(trifluoromethyl)-2,10,11,12,13,15-hexahydropyrazolo[4′,3′:9,10][1,6]oxazacycloundecino[8,7,6-hi]indole-8-carboxylic Acid] |  |  |  | 9600 nM | 1900 nM |
| CCc1c2c(nn1C)C(CCC(C)(C)O)OCCCCn1c(C(=O)O)c(CCCOc3cccc4cc(F)ccc34)c3ccc(Cl)c-2c31 (single isomer, unassigned; enantiomer 1) [Example 75, (+)-4-chloro-3-ethyl-7-{3-[(6-fluoronaphthalen-1-yl)oxy]propyl}-15-(3-hydroxy-3-methylbutyl)-2-methyl-2,10,11,12,13,15-hexahydropyrazolo[4′,3′:9,10][1,6]oxazacycloundecino[8,7,6-hi]indole-8-carboxylic Acid—N-ethylethanamine Salt (Enantiomer 1)] | 9.7 nM | 12 nM |  |  |  |
| CCc1c2c(nn1C)C1CCCCN1CCCCn1c(C(=O)O)c(CCCOc3cccc4ccccc34)c3ccc(Cl)c-2c31 (racemic) [Example 102, (rac)-18-chloro-1-ethyl-2-methyl-15-[3-(1-naphthyloxy)propyl]-2,3b,4,5,6,7,9,10,11,12-decahydropyrazolo[3′,4′:8,9]pyrido[1′,2′:6,7][1,6]diazacycloundecino[10,11,1-hi]indole-14-carboxylic Acid] |  |  |  | 950 nM | 800 nM |
| CCc1c2c(nn1C)C(C(F)(F)F)OCCCCn1c(C(=O)O)c(CCCOc3cccc4ccccc34)c3ccc(Cl)c-2c31 (single isomer, unassigned; enantiomer 1) [Example 33, (+)-4-chloro-3-ethyl-2-methyl-7-{3-[(naphthalen-1-yl)oxy]propyl}-15-(trifluoromethyl)-2,10,11,12,13,15-hexahydropyrazolo[4′,3′:9,10][1,6]oxazacycloundecino[8,7,6-hi]indole-8-carboxylic Acid—N-ethylethanamine Salt (Enantiomer 1)] | 3700 nM | 1100 nM |  |  |  |
